Patent US8603528B2, “Compositions and method for the reduction of post-operative pain” (ABYRX, Inc., priority 2004, dated 2013)
Entries after “also recorded” stand apart in the source; their conditions may differ.

Assay: Evaluation of elution rates of analgesic from a 0.5 gm composition button in phosphate buffer, HPLC-UV
Type: physicochemical
Procedure: The surface area exposed to the buffer is about 0.785 sq. cm. One cc aliquots of the buffer solution are taken over a three day period, every 2 hours during business hours of day one, then several times on each of days two and three. […] The same procedure was followed for measurement of the elution of bupivacaine free base and hydrochloride.

SMILES	period over which the free base of lidocaine is eluted (liquid component of the putty changed from triethyl citrate to Pluronic L-35 and tocopheryl acetate)	period over which the free base of lidocaine is released (putty-like composition comprising lidocaine free base, calcium stearate and liquid triethyl citrate)	effect of the added material on the elution rate of the anesthetic from the putty
CCN(CC)CC(=O)Nc1c(C)cccc1C [lidocaine free base, lidocaine, reference compound]	eight	three	–
CCCCCCCCCCCC(=O)OCC [ethyl laurate]	–	–	retard the elution
CC(=O)Oc1c(C)c(C)c2c(c1C)CCC(C)(CCC[C@H](C)CCC[C@H](C)CCCC(C)C)O2 (some centres unmarked) [tocopheryl acetate]	–	–	slow down the elution rate; also recorded: reduces the elution rate; also recorded: retard the elution
CCCCCCCCCCCCOC(C)=O [lauryl acetate]	–	–	retard the elution
